Results: patent publication US20180296456A1, “Decapeptide-12 Modulation of Sirtuin Gene Expression in Epidermal Keratinocyte Progenitors” (Escape Therapeutics, Inc., priority 2017, published 2018)
“And” between values parts separate entries of the source, which are not always exact repeats. Equal values may be shown once. Ends that are not written are not given here.

How the values were obtained:
[1] = tested on: SIRT6; assay: SIRT6 transcription, semi-quantitative RT-PCR in human epidermal progenitors; assay type: cell-based; details: 72 h
Method in brief: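 Following a 72 hour treatment, cells were trypsinized and RNA isolated with an RNeasy kit. cDNA was made from 2 μg RNA using oligo dT and TaqMan reagents, then SIRT6 and 18S were amplified for 34 cycles. Products ran on 1.5 percent agarose gels with ethidium bromide; densitometry gave SIRT6/18S intensity ratios compared against vehicle-treated controls.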

[2] = tested on: SIRT4; assay: SIRT4 transcription, semi-quantitative RT-PCR in human epidermal progenitors; assay type: cell-based; details: 72 h
[3] = tested on: SIRT7; assay: SIRT7 transcription, semi-quantitative RT-PCR in human epidermal progenitors; assay type: cell-based; details: 72 h
Method in brief: (§1)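 Human neonatal epidermal progenitors in Epilife (60 μM CaCl2) treated 72 h with decapeptides at 10, 30, 50, 100 and 300 μM (0.05% final DMSO). cDNA from 2 μg total RNA; semi-quantitative PCR, 34 cycles, with band densitometry on agarose gels expressed as ratio to 18S.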

[4] = Trypan blue cell viability, 7 days, melanoblasts; assay type: cell-based; details: human, relative to control, read-out: melanoblast viability after 7 days
Protocol: (§2) The effect of each of the decapeptides upon cell viability was also tested. In particular, cells were incubated with the decapeptide at various concentrations and then counted for viability relative to the control (untreated cells) using trypan blue. Cytotoxicity was measured according to the following formula:
(§3) [1−(# of cells in control−# of live cells in test sample)/# of cells in control]×100 percent.

[5] = Trypan blue cell viability, 7 days, epidermal progenitors; assay type: cell-based; details: human, relative to control, read-out: epidermal progenitor viability after 7 days
Protocol: as §2, §3

[6] = tested on: SIRT5; assay: SIRT5 transcription, semi-quantitative RT-PCR in human epidermal progenitors; assay type: cell-based; details: 72 h
Method in brief: as §1

[7] = MTT cell proliferation assay, fibroblasts; assay type: cell-based, human; details: human, MTT, 72 h, read-out: fibroblast proliferation rate after 72 hours
Protocol: Proliferation rates for three human cell lines (epidermal progenitors, melanoblasts, and fibroblasts) were determined using a TACS® MTT Cell Proliferation Kit. Cells were seeded at 2.5×10^4/well in 96-well plates in a humidified atmosphere with 5 percent CO2 at 37 degrees Celsius. Twenty-four hours later, the decapeptides were added to the corresponding wells at varying concentrations and incubated for 72 hours. The remainder of the procedure was performed following the manufacturer's protocol.

[8] = tested on: SIRT1; assay: SIRT1 transcription, semi-quantitative RT-PCR in human epidermal progenitors; assay type: cell-based; details: 72 h
Method in brief: as §1

[9] = Trypan blue cell viability, 7 days, fibroblasts; assay type: cell-based; details: human, relative to control, read-out: fibroblast viability after 7 days
Protocol: as §2, §3

[10] = tested on: SIRT3; assay: SIRT3 transcription, semi-quantitative RT-PCR in human epidermal progenitors; assay type: cell-based; details: 72 h
Method in brief: as §1

YRSRKYSSWY [decapeptide-12, YRSRKYSSWY]
SIRT6 transcription increase relative to control ([1]; 3 μM): 3 ± 1%
SIRT6 transcription increase relative to control ([1]; 10 μM): 21.3 ± 8.1%
SIRT6 transcription increase relative to control ([1]; 10 μM, listed as P4): 21 ± 8%
SIRT6 transcription increase relative to control ([1]; 30 μM): 52 ± 5.1%
SIRT6 transcription increase relative to control ([1]; 30 μM, listed as P4): 52 ± 5%
SIRT6 transcription increase relative to control ([1]; 50 μM): 95.4 ± 13.4%
SIRT6 transcription increase relative to control ([1]; 50 μM, listed as P4): 95 ± 13%
SIRT6 transcription increase relative to control ([1]; 100 μM): 147±8% and 147%
SIRT6 transcription increase relative to control ([1]; 100 μM, listed as Deca): 147 ± 8.4%
SIRT6 transcription increase relative to control ([1]; 100 μM, listed as P4): 147 ± 8%
SIRT6 transcription increase relative to control ([1]; 300 μM): 189 ± 9.5%
SIRT6 transcription increase relative to control ([1]; 300 μM, listed as P4): 189 ± 10%
SIRT6 transcription increase relative to control ([1]; 500 μM): 194 ± 14%
SIRT6 transcription increase relative to control ([1]; 1000 μM): 167 ± 12.2%
SIRT4 transcription increase relative to control ([2]; 3 μM): 3 ± 1%
SIRT4 transcription increase relative to control ([2]; 10 μM): 8.1 ± 4%^
SIRT4 transcription increase relative to control ([2]; 10 μM, listed as P4): 8 ± 3%
SIRT4 transcription increase relative to control ([2]; 30 μM): 12.1 ± 7%
SIRT4 transcription increase relative to control ([2]; 30 μM, listed as P4): 12 ± 7%
SIRT4 transcription increase relative to control ([2]; 50 μM): 41.2 ± 13.1%
SIRT4 transcription increase relative to control ([2]; 50 μM, listed as P4): 41 ± 13%
SIRT4 transcription increase relative to control ([2]; 100 μM, listed as Deca): 71.4 ± 14.1%
SIRT4 transcription increase relative to control ([2]; 100 μM, listed as P4): 71 ± 14%
SIRT4 transcription increase relative to control ([2]; 300 μM): 115 ± 11.7%
SIRT4 transcription increase relative to control ([2]; 300 μM, listed as P4): 115 ± 12%
SIRT4 transcription increase relative to control ([2]; 500 μM): 145 ± 12.7%
SIRT4 transcription increase relative to control ([2]; 1000 μM): 151 ± 13.4%
SIRT7 transcription increase relative to control ([3]; 3 μM): 5 ± 1%
SIRT7 transcription increase relative to control ([3]; 10 μM): 15 ± 4.2%
SIRT7 transcription increase relative to control ([3]; 10 μM, listed as P4): 15 ± 4%
SIRT7 transcription increase relative to control ([3]; 30 μM): 34.4 ± 9.2%
SIRT7 transcription increase relative to control ([3]; 30 μM, listed as P4): 34 ± 9%
SIRT7 transcription increase relative to control ([3]; 50 μM): 61.3 ± 10.2%
SIRT7 transcription increase relative to control ([3]; 50 μM, listed as P4): 61 ± 10%
SIRT7 transcription increase relative to control ([3]; 100 μM): 95.4±14% and 95±14%
SIRT7 transcription increase relative to control ([3]; 100 μM, listed as Deca): 95.4 ± 14.2%
SIRT7 transcription increase relative to control ([3]; 100 μM, listed as P4): 95 ± 14%
SIRT7 transcription increase relative to control ([3]; 300 μM): 148 ± 9.6%
SIRT7 transcription increase relative to control ([3]; 300 μM, listed as P4): 148 ± 10%
SIRT7 transcription increase relative to control ([3]; 500 μM): 171.4 ± 8.4%
SIRT7 transcription increase relative to control ([3]; 1000 μM): 181.1 ± 8.4%
viability at 168 h, 3 µM ([4]; 3 μM): 100%
viability at 168 h, 10 µM ([4]; 10 μM): 99 ± 1%
viability at 168 h, 30 µM ([4]; 30 μM): 98.3 ± 1%
viability at 168 h, 50 µM ([4]; 50 μM): 98 ± 1%
viability at 168 h, 100 µM ([4]; 100 μM): 97.3 ± 1%
viability at 168 h, 300 µM ([4]; 300 μM): 95.2 ± 2%
viability at 168 h, 500 µM ([4]; 500 μM): 94.6 ± 2%
viability at 168 h, 1000 µM ([4]; 1000 μM): 94 ± 2%
viability at 168 h, 3 µM ([5]; 3 μM): 100%
viability at 168 h, 10 µM ([5]; 10 μM): 99 ± 1%
viability at 168 h, 30 µM ([5]; 30 μM): 98.4 ± 1%
viability at 168 h, 50 µM ([5]; 50 μM): 97.8 ± 1%
viability at 168 h, 100 µM ([5]; 100 μM): 97.1 ± 1%
viability at 168 h, 300 µM ([5]; 300 μM): 95.6 ± 2%
viability at 168 h, 500 µM ([5]; 500 μM): 94.2 ± 2%
viability at 168 h, 1000 µM ([5]; 1000 μM): 93.8 ± 2%
SIRT5 transcription increase relative to control ([6]; 3 μM): 3 ± 1%
SIRT5 transcription increase relative to control ([6]; 10 μM): 5.2 ± 3%^
SIRT5 transcription increase relative to control ([6]; 10 μM, listed as P4): 5 ± 3%
SIRT5 transcription increase relative to control ([6]; 30 μM): 21 ± 6.7%
SIRT5 transcription increase relative to control ([6]; 30 μM, listed as P4): 21 ± 7%
SIRT5 transcription increase relative to control ([6]; 50 μM): 33.1 ± 6.1%
SIRT5 transcription increase relative to control ([6]; 50 μM, listed as P4): 33 ± 6%
SIRT5 transcription increase relative to control ([6]; 100 μM, listed as Deca): 46 ± 7.3%
SIRT5 transcription increase relative to control ([6]; 100 μM, listed as P4): 46 ± 7%
SIRT5 transcription increase relative to control ([6]; 300 μM): 67 ± 9.3%
SIRT5 transcription increase relative to control ([6]; 300 μM, listed as P4): 67 ± 9%
SIRT5 transcription increase relative to control ([6]; 500 μM): 87.4 ± 15.1%
SIRT5 transcription increase relative to control ([6]; 1000 μM): 92.1 ± 16.8%
viability at 72 h, 3 µM ([7]; 3 μM): 100%
viability at 72 h, 10 µM ([7]; 10 μM): 99 ± 1%
viability at 72 h, 30 µM ([7]; 30 μM): 99 ± 1%
viability at 72 h, 50 µM ([7]; 50 μM): 98 ± 1%
viability at 72 h, 100 µM ([7]; 100 μM): 97 ± 1%
viability at 72 h, 300 µM ([7]; 300 μM): 97 ± 1%
viability at 72 h, 500 µM ([7]; 500 μM): 97 ± 2%
viability at 72 h, 1000 µM ([7]; 1000 μM): 96 ± 2%
SIRT1 transcription increase relative to control ([8]; 3 μM): 3 ± 1%
SIRT1 transcription increase relative to control ([8]; 10 μM): 12.2 ± 3.1%^
SIRT1 transcription increase relative to control ([8]; 10 μM, listed as P4): 12 ± 3%
SIRT1 transcription increase relative to control ([8]; 30 μM): 34 ± 6.7%
SIRT1 transcription increase relative to control ([8]; 30 μM, listed as P4): 34 ± 7%
SIRT1 transcription increase relative to control ([8]; 50 μM): 79.2 ± 12%
SIRT1 transcription increase relative to control ([8]; 50 μM, listed as P4): 79 ± 12%
SIRT1 transcription increase relative to control ([8]; 100 μM): 141±11% and 141%
SIRT1 transcription increase relative to control ([8]; 100 μM, listed as Deca): 141.2 ± 11%
SIRT1 transcription increase relative to control ([8]; 100 μM, listed as P4): 141 ± 11%
SIRT1 transcription increase relative to control ([8]; 300 μM): 188 ± 12%^
SIRT1 transcription increase relative to control ([8]; 300 μM, listed as P4): 188 ± 12%
SIRT1 transcription increase relative to control ([8]; 500 μM): 205 ± 13.3%
SIRT1 transcription increase relative to control ([8]; 1000 μM): 213%
SIRT1 transcription increase relative to control ([8]; 1000 μM, listed as Deca): 213 ± 13.4%
viability at 168 h, 3 µM ([9]; 3 μM): 100%
viability at 168 h, 10 µM ([9]; 10 μM): 98.6 ± 1%
viability at 168 h, 30 µM ([9]; 30 μM): 98.2 ± 1%
viability at 168 h, 50 µM ([9]; 50 μM): 97.8 ± 1%
viability at 168 h, 100 µM ([9]; 100 μM): 97.2 ± 1%
viability at 168 h, 300 µM ([9]; 300 μM): 95.6 ± 2%
viability at 168 h, 500 µM ([9]; 500 μM): 94.5 ± 2%
viability at 168 h, 1000 µM ([9]; 1000 μM): 93.8 ± 1%
SIRT3 transcription increase relative to control ([10]; 3 μM): 4 ± 1%
SIRT3 transcription increase relative to control ([10]; 10 μM): 9.2 ± 2.8%
SIRT3 transcription increase relative to control ([10]; 10 μM, listed as P4): 9 ± 3%
SIRT3 transcription increase relative to control ([10]; 30 μM): 32.2 ± 6.1%
SIRT3 transcription increase relative to control ([10]; 30 μM, listed as P4): 32 ± 6%
SIRT3 transcription increase relative to control ([10]; 50 μM): 65 ± 12.1%
SIRT3 transcription increase relative to control ([10]; 50 μM, listed as P4): 65 ± 12%
SIRT3 transcription increase relative to control ([10]; 100 μM): 121±13%
SIRT3 transcription increase relative to control ([10]; 100 μM, listed as Deca): 121 ± 13.2%
SIRT3 transcription increase relative to control ([10]; 100 μM, listed as P4): 121 ± 13%
SIRT3 transcription increase relative to control ([10]; 100 μM, listed as decapeptide): 121%
SIRT3 transcription increase relative to control ([10]; 300 μM): 165.2 ± 12.4%
SIRT3 transcription increase relative to control ([10]; 300 μM, listed as P4): 165 ± 12%
SIRT3 transcription increase relative to control ([10]; 500 μM): 177 ± 9.2%
SIRT3 transcription increase relative to control ([10]; 1000 μM): 171 ± 9%
